Assay results published in PubChem BioAssay AID1845200 (Molecular Pharmacology Branch, DTP, NCI, 2023).
Where “and” joins values, the source holds several entries; their conditions need not be identical. Identical values can stand only once. Calls of active or inactive are those of the source. The calls were made as follows: active = viability on the fitted dose curve at most 10% of control; inactive = the rest.

Test system: ASPS-1 complex tumor spheroids, viability
Assay: Anticancer human tumor ASPS-1 cell line growth inhibition;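 also: spheroids exposed to agents for 7 days after 3 days of growth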;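 as to viability, T/C: 100% = DMSO vehicle treated spheroids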
Conditions: for viability, T/C: stronger effect = lower value
Summary of the method: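 Complex tumor spheroids combined malignant cells with endothelial cells and mesenchymal stem cells. DNA-damaging drugs and DNA repair inhibitors were tested alone and in combination, at half-log dilutions down from clinical Cmax (top 10 microM if Cmax unknown), 0.25% DMSO final.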

[1] = curve of first compound, second compound 1 µM
[2] = curve of first compound, second compound 3.16 µM
[3] = curve of first compound, second compound 10 µM
[4] = curve of first compound, second compound 31.6 µM
[5] = curve of first compound, second compound 100 µM
[6] = curve of first compound, second compound 30 pM
[7] = curve of first compound, second compound 94.9 pM
[8] = curve of first compound, second compound 0.0003 µM
[9] = curve of first compound, second compound 0.000949 µM
[10] = curve of first compound, second compound 0.003 µM
[11] = second compound 30 pM, first compound 0.0316 µM
[12] = second compound 30 pM, first compound 0.1 µM
[13] = second compound 30 pM, first compound 0.316 µM
[14] = second compound 30 pM, first compound 1 µM
[15] = second compound 30 pM, first compound 3.16 µM
[16] = second compound 30 pM, first compound 10 µM
[17] = second compound 94.9 pM, first compound 0.0316 µM
[18] = second compound 94.9 pM, first compound 0.1 µM
[19] = second compound 94.9 pM, first compound 0.316 µM
[20] = second compound 94.9 pM, first compound 1 µM
[21] = second compound 94.9 pM, first compound 3.16 µM
[22] = second compound 94.9 pM, first compound 10 µM
[23] = second compound 0.0003 µM, first compound 0.0316 µM
[24] = second compound 0.0003 µM, first compound 0.1 µM
[25] = second compound 0.0003 µM, first compound 0.316 µM
[26] = second compound 0.0003 µM, first compound 1 µM
[27] = second compound 0.0003 µM, first compound 3.16 µM
[28] = second compound 0.0003 µM, first compound 10 µM
[29] = second compound 0.000949 µM, first compound 0.0316 µM
[30] = second compound 0.000949 µM, first compound 0.1 µM
[31] = second compound 0.000949 µM, first compound 0.316 µM
[32] = second compound 0.000949 µM, first compound 1 µM
[33] = second compound 0.000949 µM, first compound 3.16 µM
[34] = second compound 0.000949 µM, first compound 10 µM
[35] = second compound 0.003 µM, first compound 0.0316 µM
[36] = second compound 0.003 µM, first compound 0.1 µM
[37] = second compound 0.003 µM, first compound 0.316 µM
[38] = second compound 0.003 µM, first compound 1 µM
[39] = second compound 0.003 µM, first compound 3.16 µM
[40] = second compound 0.003 µM, first compound 10 µM

## CNCc1ccc(-c2cc(-c3nc(-c4ccc(S(=O)(=O)C(C)C)cc4)cnc3N)on2)cc1 + Cn1nnc2c(C(N)=O)ncn2c1=O
[1]
  IC50: 565 nM
[2]
  IC50: 738 nM
[3]
  IC50: 259 nM
[4]
  IC50: 292 nM
[5]
  IC50: 184 nM
Second compound 1 µM, first compound 0.00949 µM
  viability, T/C: 104%
Second compound 1 µM, first compound 0.03 µM
  viability, T/C: 104%
Second compound 1 µM, first compound 0.0949 µM
  viability, T/C: 105%
Second compound 1 µM, first compound 0.3 µM
  viability, T/C: 72.5%
Second compound 1 µM, first compound 0.949 µM
  viability, T/C: 31.1%
Second compound 1 µM, first compound 3 µM
  viability, T/C: 7.06%
Second compound 3.16 µM, first compound 0.00949 µM
  viability, T/C: 109%
Second compound 3.16 µM, first compound 0.03 µM
  viability, T/C: 106%
Second compound 3.16 µM, first compound 0.0949 µM
  viability, T/C: 92.6%
Second compound 3.16 µM, first compound 0.3 µM
  viability, T/C: 69.3%
Second compound 3.16 µM, first compound 0.949 µM
  viability, T/C: 45.6%
Second compound 3.16 µM, first compound 3 µM
  viability, T/C: 9.69%
Second compound 10 µM, first compound 0.00949 µM
  viability, T/C: 98.8%
Second compound 10 µM, first compound 0.03 µM
  viability, T/C: 103%
Second compound 10 µM, first compound 0.0949 µM
  viability, T/C: 87%
Second compound 10 µM, first compound 0.3 µM
  viability, T/C: 40%
Second compound 10 µM, first compound 0.949 µM
  viability, T/C: 30.4%
Second compound 10 µM, first compound 3 µM
  viability, T/C: 6.72%
Second compound 31.6 µM, first compound 0.00949 µM
  viability, T/C: 88.5%
Second compound 31.6 µM, first compound 0.03 µM
  viability, T/C: 78.9%
Second compound 31.6 µM, first compound 0.0949 µM
  viability, T/C: 67.4%
Second compound 31.6 µM, first compound 0.3 µM
  viability, T/C: 48.7%
Second compound 31.6 µM, first compound 0.949 µM
  viability, T/C: 31.2%
Second compound 31.6 µM, first compound 3 µM
  viability, T/C: 12.9%
Second compound 100 µM, first compound 0.00949 µM
  viability, T/C: 79.1%
Second compound 100 µM, first compound 0.03 µM
  viability, T/C: 78.4%
Second compound 100 µM, first compound 0.0949 µM
  viability, T/C: 58.2%
Second compound 100 µM, first compound 0.3 µM
  viability, T/C: 41.6%
Second compound 100 µM, first compound 0.949 µM
  viability, T/C: 21.7%
Second compound 100 µM, first compound 3 µM
  viability, T/C: 1.51%

## COc1cc(C)[nH]c(=O)c1CN1CCc2c(Cl)cc(C(OC)C3COC3)c(Cl)c2C1=O (stereo not given) + COc1cc2c(cc1O)CCNC21CSC2c3c(OC(C)=O)c(C)c4c(c3C(COC1=O)N1C(O)C3Cc5cc(C)c(OC)c(O)c5C(C21)N3C)OCO4
[6]
  IC50: > 10000 nM
[7]
  IC50: > 10000 nM
[8]
  IC50: > 10000 nM
[9]
  IC50: > 10000 nM
[10]
  IC50: < 31.6 nM
[11]
  viability, T/C: 107%
[12]
  viability, T/C: 103%
[13]
  viability, T/C: 100%
[14]
  viability, T/C: 108%
[15]
  viability, T/C: 102%
[16]
  viability, T/C: 101%
[17]
  viability, T/C: 98.7%
[18]
  viability, T/C: 103%
[19]
  viability, T/C: 103%
[20]
  viability, T/C: 101%
[21]
  viability, T/C: 100%
[22]
  viability, T/C: 99.2%
[23]
  viability, T/C: 98%
[24]
  viability, T/C: 102%
[25]
  viability, T/C: 98.7%
[26]
  viability, T/C: 95%
[27]
  viability, T/C: 96.1%
[28]
  viability, T/C: 93.2%
[29]
  viability, T/C: 77.7%
[30]
  viability, T/C: 73.6%
[31]
  viability, T/C: 72.1%
[32]
  viability, T/C: 64.7%
[33]
  viability, T/C: 68.2%
[34]
  viability, T/C: 56%
[35]
  viability, T/C: 19.5%
[36]
  viability, T/C: 21.6%
[37]
  viability, T/C: 23.1%
[38]
  viability, T/C: 18.3%
[39]
  viability, T/C: 19%
[40]
  viability, T/C: 10.5%

## CNCc1ccc(-c2cc(-c3nc(-c4ccc(S(=O)(=O)C(C)C)cc4)cnc3N)on2)cc1
Compound 0.00949 µM
  viability, T/C: 107% and 103% and 105%
Compound 0.03 µM
  viability, T/C: 102% and 113% and 112%
Compound 0.0949 µM
  viability, T/C: 97.4% and 108% and 96.5%
Compound 0.3 µM
  viability, T/C: 58.1% and 74.3% and 76.5%
Compound 0.949 µM
  viability, T/C: 40.4% and 38.1% and 45.4%
Compound 3 µM
  viability, T/C: 9.11% and 6.66% and 18%
Curve of compound
  IC50: 545 nM and 644 nM and 783 nM

## Cc1cc(C)c(CNC(=O)c2cc(-c3ccc(CN4CCOCC4)cc3)cc3c2cnn3C2CCCC2)c(=O)[nH]1 + COc1cc2c(cc1O)CCNC21CSC2c3c(OC(C)=O)c(C)c4c(c3C(COC1=O)N1C(O)C3Cc5cc(C)c(OC)c(O)c5C(C21)N3C)OCO4
[6]
  IC50: > 10000 nM
[7]
  IC50: > 10000 nM
[8]
  IC50: > 10000 nM
[9]
  IC50: 273 nM
[10]
  IC50: < 31.6 nM
[11]
  viability, T/C: 103%
[12]
  viability, T/C: 97.4%
[13]
  viability, T/C: 102%
[14]
  viability, T/C: 104%
[15]
  viability, T/C: 96.9%
[16]
  viability, T/C: 84.4%
[17]
  viability, T/C: 105%
[18]
  viability, T/C: 97.8%
[19]
  viability, T/C: 98.7%
[20]
  viability, T/C: 99.5%
[21]
  viability, T/C: 93.5%
[22]
  viability, T/C: 76.8%
[23]
  viability, T/C: 92%
[24]
  viability, T/C: 96.2%
[25]
  viability, T/C: 92.8%
[26]
  viability, T/C: 86.2%
[27]
  viability, T/C: 80.1%
[28]
  viability, T/C: 63.1%
[29]
  viability, T/C: 56.8%
[30]
  viability, T/C: 75.2%
[31]
  viability, T/C: 39.9%
[32]
  viability, T/C: 31.6%
[33]
  viability, T/C: 24.5%
[34]
  viability, T/C: 9.44%
[35]
  viability, T/C: 13.7%
[36]
  viability, T/C: 5.99%
[37]
  viability, T/C: 2.02%
[38]
  viability, T/C: 0.27%
[39]
  viability, T/C: 0.25%
[40]
  viability, T/C: 0.32%

## CC1COCCN1c1cc(-c2ccnn2C)c2ccnc(-c3ccn[nH]3)c2n1 (stereo not given) + Cn1nnc2c(C(N)=O)ncn2c1=O
[1]
  IC50: 224 nM
[2]
  IC50: < 31.6 nM
[3]
  IC50: < 31.6 nM
[4]
  IC50: < 31.6 nM
[5]
  IC50: < 31.6 nM
Second compound 1 µM, first compound 0.0316 µM
  viability, T/C: 72.3%
Second compound 1 µM, first compound 0.1 µM
  viability, T/C: 59.2%
Second compound 1 µM, first compound 0.316 µM
  viability, T/C: 46.6%
Second compound 1 µM, first compound 1 µM
  viability, T/C: 41.1%
Second compound 1 µM, first compound 3.16 µM
  viability, T/C: 46.1%
Second compound 1 µM, first compound 10 µM
  viability, T/C: 43.9%
Second compound 3.16 µM, first compound 0.0316 µM
  viability, T/C: 38.5%
Second compound 3.16 µM, first compound 0.1 µM
  viability, T/C: 44%
Second compound 3.16 µM, first compound 0.316 µM
  viability, T/C: 42.2%
Second compound 3.16 µM, first compound 1 µM
  viability, T/C: 41.6%
Second compound 3.16 µM, first compound 3.16 µM
  viability, T/C: 43%
Second compound 3.16 µM, first compound 10 µM
  viability, T/C: 50.2%
Second compound 10 µM, first compound 0.0316 µM
  viability, T/C: 42.4%
Second compound 10 µM, first compound 0.1 µM
  viability, T/C: 39.4%
Second compound 10 µM, first compound 0.316 µM
  viability, T/C: 35.5%
Second compound 10 µM, first compound 1 µM
  viability, T/C: 38.1%
Second compound 10 µM, first compound 3.16 µM
  viability, T/C: 42.5%
Second compound 10 µM, first compound 10 µM
  viability, T/C: 52.4%
Second compound 31.6 µM, first compound 0.0316 µM
  viability, T/C: 37.6%
Second compound 31.6 µM, first compound 0.1 µM
  viability, T/C: 31.1%
Second compound 31.6 µM, first compound 0.316 µM
  viability, T/C: 31.7%
Second compound 31.6 µM, first compound 1 µM
  viability, T/C: 32.6%
Second compound 31.6 µM, first compound 3.16 µM
  viability, T/C: 42.2%
Second compound 31.6 µM, first compound 10 µM
  viability, T/C: 48.3%
Second compound 100 µM, first compound 0.0316 µM
  viability, T/C: 24.9%
Second compound 100 µM, first compound 0.1 µM
  viability, T/C: 22.5%
Second compound 100 µM, first compound 0.316 µM
  viability, T/C: 20.4%
Second compound 100 µM, first compound 1 µM
  viability, T/C: 23.6%
Second compound 100 µM, first compound 3.16 µM
  viability, T/C: 29.6%
Second compound 100 µM, first compound 10 µM
  viability, T/C: 42%

## Cn1ncnc1[C@H]1c2n[nH]c(=O)c3cc(F)cc(c23)N[C@@H]1c1ccc(F)cc1
Compound 0.00949 µM
  outcome: inactive
  viability, T/C: 96.5% and 101%
Compound 0.03 µM
  viability, T/C: 105% (2×) and 98.6%
Compound 0.0949 µM
  viability, T/C: 102% (2×) and 96.3%
Compound 0.3 µM
  viability, T/C: 102% and 95.5% and 98.4%
Compound 0.949 µM
  viability, T/C: 101% and 97.7% and 91.2%
Compound 3 µM
  viability, T/C: 88.4% and 86% and 72.1%
Curve of compound
  IC50: > 3000 nM
